Data as given in patent publication US20230364057A1, “BACTERIAL DNA GYRASE INHIBITORS AND METHODS OF USE THEREOF” (THE FLORIDA INTERNATIONAL UNIVERSITY BOARD OF TRUSTEES, priority 2022, published 2023).

Key:
E. coli DNA gyrase [1] = molecular target: T1, E. coli DNA gyrase (Escherichia coli (strain K12), UniProt P0AES4+P0AES6); test: Agarose gel-based DNA gyrase inhibition assay; format: biochemical
Procedure: 100 ng of DNA gyrase was used to supercoil the rx pAB1 in the presence of different concentrations of a gyrase inhibitor. […] Samples were analyzed by electrophoresis in 1% w/v agarose gels followed by ethidium bromide staining and photographed under UV light.

E. coli DNA gyrase [2] = molecular target: T1, E. coli DNA gyrase; test: biochemical; format: biochemical; settings: for IC50: bin of Table 2

SMILES	inhibition of E. coli DNA gyrase activities (E. coli DNA gyrase [1]; 50 µM of compounds)	inhibition of E. coli DNA gyrase activities (E. coli DNA gyrase [1]; 200 µM of compounds)	IC50 (E. coli DNA gyrase [2]; IC50 ([…]-50 µM)) [µM]	IC50 (E. coli DNA gyrase [2]; IC50 (50-200 µM)) [µM]	inhibition of E. coli DNA gyrase activities (E. coli DNA gyrase [2])	IC50 (E. coli DNA gyrase [2]; IC50 (15-[…] µM)) [µM]
CC(C)(C)N1C(=O)N=C(O)/C(=C\c2ccc3c(c2)CCN3CCCCl)C1=O [Compound 23]	completely inhibited	completely inhibited	25 to 50	–	–	–
Cc1ccc(NC2=NC(=O)/C(=C/C=C/c3ccco3)S2)cc1 [Compound 24]	completely inhibited	completely inhibited	25 to 50	–	–	–
COc1ccc(-c2cc(-c3ccco3)nc(O)c2C#N)cc1OC [Compound 28]	–	almost completely inhibited	–	50 to 200	–	–
Cc1cc(/C=C2\SC(=S)N=C2O)c(C)n1-c1ccccc1 [Compound 29]	completely inhibited	completely inhibited	25 to 50	–	–	–
CC(=O)NC1=NC(=O)/C(=C/c2cc(C)n(-c3cccc(C(=O)O)c3)c2C)S1 [Compound 31]	–	completely inhibited	–	50 to 200	–	–
Cc1ccc(/C=C2\SC(N3CCN(C(c4ccccc4)c4ccccc4)CC3)=NC2=O)o1 [Compound 33]	–	completely inhibited	–	50 to 200	–	–
O=C1/C(=C\c2ccc(O)cc2)SC(=S)N1/N=C/c1ccc(O)cc1 [Compound 35]	completely inhibited	completely inhibited	25 to 50	–	–	–
CN(C)c1ccc(/C=C2/C(=O)N(CCc3ccc(F)cc3)C(=O)N=C2O)cc1 [Compound 38]	–	completely inhibited	–	50 to 200	–	–
O=C(O)c1cc(N2N=C(C(F)(F)F)/C(=C/C=C/c3ccco3)C2=O)ccc1Cl [Compound 49]	almost completely inhibited	completely inhibited	25 to 50	–	–	–
O=C1NC(=S)S/C1=C/c1ccc(OC(=O)c2ccco2)cc1 [Compound 51]	–	almost completely inhibited	–	50 to 200	–	–
CCCn1c(/C=C/c2ccco2)nc2ccccc21 [Compound 53]	almost completely inhibited	completely inhibited	–	50 to 200	–	–
O=C(NCc1cccnc1)c1ccc(-c2cccc(Cl)c2Cl)o1 [Compound 56]	–	almost completely inhibited	–	50 to 200	–	–
CCOC(=O)C1=C(Nc2ccc(C)cc2)S/C(=C\c2ccc(-c3ccccc3C(=O)O)o2)C1=O [Compound 60]	–	completely inhibited	–	50 to 200	–	–
O=C1/C(=C/c2ccc(O)cc2)SC(=S)N1CC1CCCO1 (centres unmarked) [Compound 61]	–	almost completely inhibited	–	50 to 200	–	–
O=C(O)CC(C(=O)O)N1C(=O)/C(=C/c2ccc(-c3nc4ccccc4s3)o2)SC1=S (centres unmarked) [Compound 62]	almost completely inhibited	completely inhibited	–	50 to 200	–	–
Cc1cc(/C=C(/C#N)c2nc3ccccc3[nH]2)c(C)n1-c1cc(C(=O)O)cc(C(=O)O)c1 [Compound 63]	–	completely inhibited	–	50 to 200	–	–
Cc1cc(C(=O)Nc2ccccc2C(=O)O)ccc1NC(=O)COc1ccccc1Cl [Compound 65]	–	almost completely inhibited	–	50 to 200	–	–
CCOC(=O)C1=C(C)NC(=O)NC1c1ccc(N2CCC(c3ccccc3)=N2)cc1 (centres unmarked) [Compound 68]	–	almost completely inhibited	–	50 to 200	–	–
Cc1cc(-c2csc(N)n2)c(C)n1-c1ccccc1.Cl [Compound 70]	–	completely inhibited	–	50 to 200	–	–
O=C(O)C1Nc2ccccc2C2C=CCC12 (centres unmarked) [Compound 83]	almost completely inhibited	completely inhibited	–	50 to 200	inhibit E. coli DNA gyrase strongly	–

SMILES	inhibition of E. coli DNA gyrase activities (E. coli DNA gyrase [1]; 50 µM of compounds)	inhibition of E. coli DNA gyrase activities (E. coli DNA gyrase [1]; 200 µM of compounds)	IC50 (E. coli DNA gyrase [2]; IC50 ([…]-50 µM)) [µM]	IC50 (E. coli DNA gyrase [2]; IC50 (50-200 µM)) [µM]	inhibition of E. coli DNA gyrase activities (E. coli DNA gyrase [2])	IC50 (E. coli DNA gyrase [2]; IC50 (15-[…] µM)) [µM]
c1ccc(Nc2nc(N3CCCC3)c3ccccc3n2)cc1 [Compound 102]	completely inhibited	–	25 to 50	–	–	–
Cc1cc2c3c(c1)C1CC=CC1C(C(=O)O)N3CC1CC=CC21 (centres unmarked) [Compound 106]	potently inhibited	–	–	50 to 200	inhibit E. coli DNA gyrase strongly	–
Cc1onc(-c2ccccc2)c1C(=O)Nc1sccc1C#N [Compound 112]	potently inhibited	–	–	50 to 200	–	–
C(=Cc1ccco1)c1nc2ccccc2[nH]1 [Compound 129]	potently inhibited	–	–	50 to 200	–	–
CCOc1ccc(S(=O)(=O)Nc2nc3ccccc3nc2Nc2ccc(N3CCOCC3)cc2)cc1 [Compound 130]	potently inhibited	–	–	50 to 200	–	–
N#CC(C#N)=C1C=CC=CN1C(=Cc1ccccc1)C(=O)c1cccs1 [Compound 131]	potently inhibited	–	–	50 to 200	–	–
CCOC(=O)[C@@H]1Nc2ccc(C(=O)O)cc2[C@@H]2C=CC[C@H]12 [Compound 141]	potently inhibited	–	–	–	inhibit E. coli DNA gyrase strongly	–
Cc1cccc(/N=C2/NC(=O)/C(=C\C=C\c3ccco3)S2)c1C [Compound 149]	completely inhibited	–	–	–	–	15 to 25
O=C1N/C(=N\c2ccc3ccccc3c2)S/C1=C/c1ccco1 [Compound 163]	completely inhibited	–	–	–	–	15 to 25
N#Cc1sc2nc(-c3ccccc3)cc(-c3ccco3)c2c1N [Compound 167]	potently inhibited	–	–	50 to 200	–	–
O=C1/C(=C/c2ccc(O)cc2)SC(=S)N1Cc1cccnc1 [Compound 168]	potently inhibited	–	–	50 to 200	–	–
Cc1ccc(/N=C2N=C(O)/C(=C/C=C/c3ccco3)S\2)cc1C [Compound 169]	completely inhibited	–	–	–	–	15 to 25
Cc1cc(/C=C2/SC(=S)N(c3cccc(Cl)c3)C2=O)c(C)n1-c1cccnc1 [Compound 171]	completely inhibited	–	–	–	–	15 to 25
O=C(NN1C(=O)/C(=C\C=C\c2ccco2)SC1=S)c1ccccc1O [Compound 180]	completely inhibited	–	–	–	–	15 to 25
COC(=O)C1C2CC3c4[nH]c5cc(OC)ccc5c4CCN3CC2CC(OC(=O)c2ccc(N)cc2)C1OC (centres unmarked) [Compound 204]	–	potently inhibited	–	50 to 200	–	–
O=C1C(Cl)=C(NCCc2ccccc2)C(=O)c2ccccc21 [Compound 205]	–	potently inhibited	–	50 to 200	–	–
O=C1c2ccccc2C(=O)c2cc(N3CCCCC3)ccc21 [Compound 206]	–	potently inhibited	–	50 to 200	–	–
O=C(Cc1ccccc1)c1ccccn1 [Compound 213]	–	completely inhibited	–	50 to 200	–	–
CCN(CCCNc1cc2c(c(N)c1S(=O)(=O)O)C(=O)c1ccccc1C2=O)c1ccccc1 [Compound 215]	completely inhibited	completely inhibited	25 to 50	–	–	–
